Data on eleven molecules can be found in PMC11945486, “TAS1R2/TAS1R3 Single-Nucleotide Polymorphisms Affect Sweet Taste Receptor Activation by Sweeteners: The SWEET Project” (Nutrients, 2025).

Where two headings read alike, the source gives them in different places. No end group written: not given here.

In this experiment the target is T1, human TAS1R2-WT/TAS1R3-R813K (Homo sapiens, UniProt Q7RTX0+Q8TE23, R813K).
T1 construct: expressed in transfected cells; host or cells: HEK293T stably expressing Gα16gust44
T1 sequence (Q8TE23 20-839): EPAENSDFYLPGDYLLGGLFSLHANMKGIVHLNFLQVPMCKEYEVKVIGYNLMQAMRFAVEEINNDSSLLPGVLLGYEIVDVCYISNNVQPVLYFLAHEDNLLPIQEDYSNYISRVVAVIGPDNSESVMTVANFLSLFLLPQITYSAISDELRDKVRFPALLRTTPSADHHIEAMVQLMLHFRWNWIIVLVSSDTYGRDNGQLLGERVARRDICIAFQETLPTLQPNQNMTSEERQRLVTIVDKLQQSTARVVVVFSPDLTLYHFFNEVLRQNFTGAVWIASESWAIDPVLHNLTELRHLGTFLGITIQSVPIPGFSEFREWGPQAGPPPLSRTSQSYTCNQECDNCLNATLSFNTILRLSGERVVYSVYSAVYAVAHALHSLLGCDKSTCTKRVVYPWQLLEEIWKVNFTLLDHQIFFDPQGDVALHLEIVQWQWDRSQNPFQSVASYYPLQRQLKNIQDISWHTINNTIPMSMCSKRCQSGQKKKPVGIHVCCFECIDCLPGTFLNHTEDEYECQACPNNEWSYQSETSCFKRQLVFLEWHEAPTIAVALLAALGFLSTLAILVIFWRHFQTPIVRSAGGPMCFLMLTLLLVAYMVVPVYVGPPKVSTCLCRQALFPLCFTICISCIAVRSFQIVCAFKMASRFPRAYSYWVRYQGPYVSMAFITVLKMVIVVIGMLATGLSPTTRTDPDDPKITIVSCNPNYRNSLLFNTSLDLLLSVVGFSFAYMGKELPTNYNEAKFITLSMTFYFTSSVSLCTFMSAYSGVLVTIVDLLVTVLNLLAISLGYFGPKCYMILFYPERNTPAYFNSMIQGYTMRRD
T1 sequence (Q7RTX0 21-852 R813K): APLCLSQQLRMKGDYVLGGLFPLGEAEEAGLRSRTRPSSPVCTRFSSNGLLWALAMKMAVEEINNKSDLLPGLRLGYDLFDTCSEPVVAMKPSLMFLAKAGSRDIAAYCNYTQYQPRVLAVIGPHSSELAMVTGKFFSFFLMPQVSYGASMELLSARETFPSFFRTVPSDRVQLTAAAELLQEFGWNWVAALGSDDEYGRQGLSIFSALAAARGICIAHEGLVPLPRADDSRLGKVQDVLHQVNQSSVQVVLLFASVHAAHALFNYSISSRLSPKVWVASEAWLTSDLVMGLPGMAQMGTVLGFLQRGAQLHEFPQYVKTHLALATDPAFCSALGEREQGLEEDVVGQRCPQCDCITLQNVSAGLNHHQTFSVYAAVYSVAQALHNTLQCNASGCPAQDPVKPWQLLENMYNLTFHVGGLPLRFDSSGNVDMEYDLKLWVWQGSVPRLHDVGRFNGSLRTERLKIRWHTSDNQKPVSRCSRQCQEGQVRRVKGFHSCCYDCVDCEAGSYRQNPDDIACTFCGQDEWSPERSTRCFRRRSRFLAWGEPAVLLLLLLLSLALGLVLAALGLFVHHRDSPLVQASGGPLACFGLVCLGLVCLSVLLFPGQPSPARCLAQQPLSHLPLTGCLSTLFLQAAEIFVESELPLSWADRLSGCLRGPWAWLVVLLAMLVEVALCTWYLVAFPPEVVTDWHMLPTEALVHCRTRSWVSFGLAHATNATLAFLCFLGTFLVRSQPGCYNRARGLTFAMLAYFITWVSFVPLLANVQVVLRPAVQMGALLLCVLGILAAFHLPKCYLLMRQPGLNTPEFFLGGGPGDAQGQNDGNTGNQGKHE
Description: Calcium mobilisation assay, TAS1R2-WT with TAS1R3 variant R813K. The format is cell-based. To be noted: for Max ΔF/F0: maximal signal amplitude. An excerpt:
The coding sequences for TAS1R2 and TAS1R3 were commercially synthesised, and the human codon was optimised for expression in human cells. The coding sequences of human TAS1R2 and TAS1R3 were subcloned and inserted into the mammalian expression vectors pcDNA6/myc-HisA and pcDNA4/myc-HisA (Invitrogen; Thermo Fisher Scientific; Illkirch, France) between the EcoRI and NotI restriction sites, generating the plasmids pcDNA6-TAS1R2 and pcDNA4-TAS1R3, respectively. To increase protein expression in mammalian cells, an upstream start codon was used, which was a sequence called MAX, corresponding to the QBI SP163 element also described in pcDNA4-HisMax (Invitrogen; Thermo Fisher Scientific; Illkirch, France). To measure the expression level of the receptor by immunohistochemistry, we used the FLAG sequence ([…]) in the C-terminal position, which encodes the FLAG tag epitope. SNP variants of TAS1R2 and TAS1R3 were constructed based on […], respectively, using site-directed mutagenesis (Genewiz; Leipzig, Germany).
The HEK293T cells were kindly provided by Jay P. Slack (Givaudan Flavors Corporation; Cincinnati, OH, USA). HEK293T cells stably transfected with Gα16gust44 [43, 67] were seeded in poly-D-lysine-coated clear-bottom black 96-well plates (0.35 × 10^5 cells/well) in high-glucose DMEM supplemented with 2 mM GlutaMAX, 10% dialysed foetal bovine serum with penicillin/streptomycin and G418 (400 μg/mL) at 37 °C and 6.3% CO2 in a humidified atmosphere as previously reported. […] As a negative control, HEK293T cells were mock-transfected with the empty expression vector. After a further 24 h of incubation, the HEK293T cells were washed with C1 buffer (130 mM NaCl, 5 mM KCl, 10 mM HEPES pH 7.4 and 2 mM CaCl2). The 96-well plates containing the cells were then stimulated with sweet-tasting compounds. […] Different concentration ranges were tested depending on the sweet compound injected. The Ca^2+ changes were expressed as fractional changes in fluorescent light intensity: ΔF/F = (F − F0)/F0, where F was the fluorescent light intensity at each point, and F0 was the value of emitted fluorescent light prior to stimulus application. To calculate dose–response relationships, the changes in fluorescence upon stimulus application were averaged, mock-subtracted and baseline-corrected. The dose–response data obtained were adjusted using a 4-parameter logistic equation. The half-maximal effective concentrations (EC50 values) and maximal signal amplitudes were calculated using SigmaPlot software (version 15.0) (Systat Software; San Jose, CA, USA).
For in vitro calcium mobilisation assay performed on hTAS1R2-SNPs, hTAS1R3-SNPs and mTAS1R3-I60T, 6 to 7 concentrations were tested for each sweet compound, plus buffer alone. All concentration–receptor combinations were measured in duplicate, and each experiment was repeated at least 4 times (8 wells/concentration). Results were expressed for each concentration as ΔF/F mean ± SEM and represented as dose–response curves.

Consider `CC1=CC(=O)NS(=O)(=O)O1` [Acesulfame K, acesulfame K], for which the “R1 = Variant EC50/WT EC50” value was found to be 0.7 and the “Max ΔF/F0” value came out at 0.40 ± 0.01. Besides, the EC50 (read-out: EC50) was 433 ± 34 µM.

As to `O=S(=O)(O)NC1CCCCC1` [Cyclamate, cyclamate], the EC50 (read-out: EC50) amounted to 1330 ± 22 µM.

Regarding `C[C@H](CC[C@@H](O[C@@H]1O[C@H](CO[C@@H]2O[C@H](CO)[C@@H](O)[C@H](O)[C@H]2O)[C@@H](O)[C@H](O)[C@H]1O[C@@H]1O[C@H](CO)[C@@H](O)[C@H](O)[C@H]1O)C(C)(C)O)[C@H]1CC[C@@]2(C)[C@@H]3CC=C4[C@@H](CC[C@H](O[C@@H]5O[C@H](CO[C@@H]6O[C@H](CO)[C@@H](O)[C@H](O)[C@H]6O)[C@@H](O)[C@H](O)[C@H]5O)C4(C)C)[C@]3(C)[C@H](O)C[C@]12C` [Mogroside V, mogroside V], the “R1 = Variant EC50/WT EC50” value was 0.7 and the “Max ΔF/F0” value was 1.14 ± 0.02. Moreover, the concentration giving a half-maximal response (EC50) (read-out: EC50) is 22 ± 1.3 µM.

As to `COc1ccc(CCC(=O)c2c(O)cc(O[C@@H]3O[C@H](CO)[C@@H](O)[C@H](O)[C@H]3O[C@@H]3O[C@@H](C)[C@H](O)[C@@H](O)[C@H]3O)cc2O)cc1O` [NHDC, neohesperidin dihydrochalcone], the “R1 = Variant EC50/WT EC50” value amounted to 0.7 and the “Max ΔF/F0” value is 1.00 ± 0.02. In addition, the 50% effective concentration (EC50) (read-out: EC50) turned out to be 34.2 ± 15.2 µM.

Consider `COC(=O)[C@H](Cc1ccccc1)NC(=O)[C@H](CC(=O)O)NCCC(C)(C)C` [Neotame], for which the “R1 = Variant EC50/WT EC50” value is 0.8 and the “Max ΔF/F0” value was 0.79 ± 0.02. Besides, the concentration for a half-maximal effect (EC50) (read-out: EC50) came to 0.98 ± 0.07 µM.

Consider `C=C(C)[C@@H]1CC=C(/C=N/O)CC1` [Perillartine, perillartine], for which the “R1 = Variant EC50/WT EC50” value is 0.8 and the “Max ΔF/F0” value is 1.28 ± 0.16. In addition, the 50% effective concentration (EC50) (read-out: EC50) was determined as 10.4 ± 3.6 µM.

For the molecule `C=C1C[C@@]23CC[C@H]4[C@@](C)(CCC[C@@]4(C)C(=O)O[C@@H]4O[C@H](CO)[C@@H](O)[C@H](O[C@@H]5O[C@H](CO)[C@@H](O)[C@H](O)[C@H]5O)[C@H]4O[C@@H]4O[C@H](CO)[C@@H](O)[C@H](O)[C@H]4O)[C@@H]2CC[C@]1(O[C@@H]1O[C@H](CO)[C@@H](O)[C@H](O[C@@H]2O[C@H](CO)[C@@H](O)[C@H](O)[C@H]2O)[C@H]1O[C@@H]1O[C@H](CO)[C@@H](O)[C@H](O)[C@H]1O)C3` [Rebaudioside M, rebaudioside M], the “R1 = Variant EC50/WT EC50” value is 0.7 and the “Max ΔF/F0” value worked out at 1.18 ± 0.06. Also, for the setting “read-out: EC50”, the EC50 worked out at 27.4 ± 3.4 µM.

With `OC[C@H]1O[C@H](O[C@]2(CCl)O[C@H](CCl)[C@@H](O)[C@@H]2O)[C@H](O)[C@@H](O)[C@H]1Cl` [Sucralose], the “R1 = Variant EC50/WT EC50” value was 1.1 and the “Max ΔF/F0” value was found to be 0.90 ± 0.03. Further, for the setting “read-out: EC50”, the half-maximal effective concentration (EC50) was 120 ± 9 µM.

Consider “brazzein (QDKCKKVYENYPVSKCQLANQCNYDCKLDKHARSGECFYDEKRNLQCICDYCEY; ends and bridges not checked; cysteine pairing not given here; UniProt P56552 1-54, looked up) [sweet-tasting protein obtained by recombinant production using the yeast Pichia pastoris]”, for which the “R1 = Variant EC50/WT EC50” value is recorded as 0.5 and the “Max ΔF/F0” value was 1.00 ± 0.05. Also, the EC50 (brazzein) worked out at 58.0 ± 10.5 µg/mL.

Turning to thaumatin, the “R1 = Variant EC50/WT EC50” value is given as 0.6 and the “Max ΔF/F0” value was 0.74 ± 0.04.

B1: thaumatin (protein)
chain: ATFEIVNRCSYTVWAAASKGDAALDAGGRQLNSGESWTINVEPGTKGGKIWARTDCYFDDSGSGICKTGDCGGLLRCKRFGRPPTTLAEFSLNQYGKDYIDISNIKGFNVPMDFSPTTRGCRGVRCAADIVGQCPAKLKAPGGGCNDACTVFQTSEYCCTTGKCGPTEYSRFFKRLCPDAFSYVLDKPTTVTCPGSSNYRVTFCPTA
modifications: Eight disulfides
notes: sweet-tasting plant protein, E957
Turning to B1, for the setting “read-out: EC50”, the EC50 was determined as 6.5 ± 0.9 µM.
